Assay results published in publication PMC7904827 (Scientific Reports, 2021).
Where two headings read alike, the source gives them in different places.

What was measured:
[1] = 100 µM, same conditions, compared with GK-667; cited from earlier work
[2] = Freeze-thaw and storage stability in plasma at -80 °C; type: in vitro ADME, rabbit; conditions: for % of initial concentration, 1st freeze-thaw cycle / % of initial concentration, 2nd freeze-thaw cycle: plasma, -80 °C
Method: ICRF-193 and ICRF-193met in plasma, respectively. Unweighted and weighted (1/x and 1/x2) linear regression was applied to obtain the best fitting calibration model. […]
(§1) Stability of the analytes was examined at low and high concentrations. Process s tability (n=3) in plasma was tested for 20 min at either laboratory temperature (23 °C) or on ice (4 °C, only for GK-667). Post-preparation stability was examined for 8 to 10 h in an autosampler (8 °C, n=3) for all treated matrices. […]
plasma was tested at -80 °C and the freezing cycle was repeated twice (n=3). […]

[3] = Process stability in untreated plasma; type: in vitro ADME, rabbit; conditions: 23 °C, 20 min
Method: Linearity was tested within the concentration range of 0.2 – 100 μM for all compounds in DMEM, the buffer and plasma and 10-100 pmol/106cells in NVCMs (method I). For method II, the concentration ranges 0.01-15 μM and 0.01-1 μM were used for determination of ICRF-193 and ICRF-193met in plasma, respectively. Unweighted and weighted (1/x and 1/x2) linear regression was applied to obtain the best fitting calibration model. […]
as §1

[4] = Population pharmacokinetic analysis in rabbits; type: in vivo, rabbit; conditions: population median
Excerpt: All model parameters of ICRF-193 and ICRF-193met could not be simultaneously estimated by stochastic approximation expectation maximization (SAEM) in one step. […] A maximum likelihood estimation was used to calculate the parameters CLmet, CLother, V4, and CLICRF-193met. For the remaining parameters of the parent-metabolite model (Fig. S5), a maximum a posteriori (MAP) estimation was adopted. The residual error in the population kinetic analysis was best described with a proportional model.
Standard noncompartmental analysis was performed using Kinetica software (version 4.0, Thermo Fisher Scientific Inc., USA). The population parameter estimation for nonlinear mixed effect models was conducted using Monolix version 2019R2 software (Antony, France: Lixoft SAS, 2019, http://lixoft.com/products/monolix/). […] For evaluation of the goodness-of-fit, the following plots were assessed: observed versus individual predicted concentrations, weighted residuals versus time and weighted residuals versus predictions. […]
Hydrolysis of GK-667 is very fast and the parent compound was essentially completely cleared from plasma within 10 min after injection. ICRF-193 was quantitatively dominating at the first sampling interval (5 min). […]

[5] = Post-preparation stability of the extracted analytes in autosampler (8 °C); type: physicochemical
Method: Linearity was tested within the concentration range of 0.2 – 100 μM for all compounds in DMEM, the buffer and plasma and 10-100 pmol/106cells in NVCMs (method I). For […]
Unweighted and weighted (1/x and 1/x2) linear regression was applied to obtain the best fitting calibration model.
Accuracy and precision were calculated at 4 levels (LLOQ, low, medium and high concentrations). Five quality control (QC) samples were used for all concentration levels. […]
as §1
plasma was tested at -80 °C and the freezing cycle was repeated twice (n=3). The buffer, DMEM, NVCMs and plasma samples containing GK -667 from in vitro studies and from first intervals of pharmacokinetic study (up to 20 min) w ere treated and analyzed immediately after […]

[6] = Approximate solubility in distilled water at room temperature; type: physicochemical; conditions: reason why it was not administered separately
Method: The syntheses of the target prodrugs were performed according to a known three-step procedure with some modifications. Target prodrugs GK-667, GK-678 and GK-691 were obtained in 34%, 37% and 17% overall yields, respectively. […] The resulting solutions remained physically stable for at least two hours at room temperature.

[7] = In vivo pharmacokinetic study of GK-667 in rabbits, noncompartmental analysis; parameters: species or system rabbit
Method: GK-667 was freshly dissolved in saline (5 mg/mL) before each administration. New Zealand White male rabbits (n = 6, ∼3.8 kg) received GK-667 (5 mg/kg) administered as a single slow (2 min) intravenous dose bolus to the ear marginal vein. Blood (∼1 mL) was sampled from veins on the contralateral ear at selected time points after drug administration (5 min to 9 h) into BD Vacutainers (BD Biosciences, Plymouth, UK) containing lithium heparin. Collected blood samples were immediately centrifuged (2 min, 3000 rpm, 4 °C), and plasma samples were harvested directly.
Plasma samples taken 0 to 20 min after GK-667 administration were immediately processed by the addition of formic acid and precipitation with ice-cold methanol. The supernatants were then analyzed for all analytes, including the intact prodrug. This was essential to ensure the appropriate determination of highly labile GK-667 at the first sampling intervals, and the whole procedure was validated for this purpose. […] Thus, all following plasma samples were immediately shock-frozen in liquid nitrogen and stored at -80 °C until analysis.
For drug administration and blood sampling, light anesthesia was induced in rabbits with a mixture of ketamine (25 mg/kg, i.m.) and midazolam (2.5 mg/kg, i.m.); sedation was then maintained with midazolam when needed. The blood withdrawn from the animals was compensated with an appropriate volume of sterile saline. All in vivo experiments and procedures were approved and supervised by the Animal Welfare Committee of the Faculty of Medicine in Hradec Kralove (Charles University), and the experiments were performed in compliance with the ARRIVE guidelines.
Standard noncompartmental analysis was performed using Kinetica software (version 4.0, Thermo Fisher Scientific Inc., USA). The population parameter estimation for nonlinear mixed effect models was conducted using Monolix version 2019R2 software (Antony, France: Lixoft SAS, 2019, http://lixoft.com/products/monolix/). The stochastic approximation expectation maximization (SAEM) algorithm coupled with Markov Chain Monte Carlo (MCMC) without the use of approximations (linearization) was used for the estimation of the likelihood. For evaluation of the goodness-of-fit, the following plots were assessed: observed versus individual predicted concentrations, weighted residuals versus time and weighted residuals versus predictions. Individual parameter values were obtained as empirical Bayes estimates. A visual predictive check with 1000 simulated data sets was performed.

[8] = parameters: method as in PMID 29273587; conditions: DEX in the same species (rabbit); cited from earlier work
[9] = system: neonatal ventricular cardiomyocytes (NVCMs); conditions: same assay; cited from earlier work
[10] = system: neonatal ventricular cardiomyocytes (NVCMs); experiment: In vitro cardioprotection bioassay against daunorubicin toxicity (LDH release); type: cell-based, rat; conditions: 3 h preincubation, DAU 1.2 µM, LDH release after 48 h
Method: NVCMs were isolated in-house from 1- to 3-day-old Wistar rats as described previously. The use of animals and experimental protocols were approved by Charles University, Faculty of Pharmacy Animal Welfare Committee. All experiments were performed in accordance with Directive 2010/63/EU on the Protection of Animals Used for Scientific Purposes and in compliance with Animal Research: Reporting of In Vivo Experiments (ARRIVE) guidelines. Newly isolated cardiomyocytes were left for 40 h to form a monolayer of spontaneously beating cardiomyocytes in seeding medium (DMEM/F12 supplemented with 10% HS, 5% FBS, 4% PYR and 1% P/S), which was then replaced with culture medium (DMEM/F12 supplemented with 5% FBS, 4% PYR and 1% P/S). The medium was replaced again after 24 h for new culture medium.
After 3 h, DAU solution (1.2 µM) was added to the media. After another 3 h, the medium was replaced with new (drug-free) exposure medium, and the cardiomyocytes were then kept until the end of the experiment. In addition to cytoprotective properties, the toxicity of the studied agent was also examined; this experiment was performed as described above with only the DAU addition step omitted.
Forty-five hours after the last medium exchange, a sample of medium was taken from each well to assess lactate dehydrogenase (LDH) activity[27]–[29]. For details, see the Supplementary material.
1.5 LDH activity evaluation
The control wells were treated with lysis buffer (0.1 M potassium phosphate, 1% Triton
X-100, 1 mM DTT, 2 mM EDTA; pH 7.8; 15 min; room temperature) to measure the total
cellular LDH level (sum of the activity in the control medium and the lysate). The activity of
LDH was assayed in Tris-HCl buffer (pH 8.9) containing 35 mM sodium lactate and 5 mM
NAD+. The rate of NAD+ reduction was monitored spectrophotometrically at 340 nm for 2 min.
The slope of the linear region and molar absorption coefficient e = 6.22*10 3 M/cm were used
to calculate the LDH activity, and the data were expressed as a percentage of total L DH activity. […]

[11] = system: topoisomerase IIβ (TOP2B); conditions: compared with DEX; cited from earlier work
[12] = male, New Zealand White, rabbit, plasma, iv, rabbits n = 6, GK-667 5 mg/kg i.v., NCA
[13] = rabbits n = 6, GK-667 5 mg/kg i.v., NCA

For `CC(C)COC(=O)OCN1C(=O)CN(CCN2CC(=O)N(COC(=O)OCC(C)C)C(=O)C2)CC1=O` [sobuzoxane], the “decomposition in DMEM” value [1] is given as “much slower”.
For `C[C@H]([C@H](C)N(CC(N)=O)CC(=O)O)N(CC(N)=O)CC(=O)O` [ICRF-193met], the “degradation in plasma on storage” value ([2]; -80 °C for 1 month) was “no significant degradation”, the “% of initial concentration, 1st freeze-thaw cycle” value ([2]; initial concentration 0.05 µM) was 94.1 ± 4.3% and the “% of initial concentration, 2nd freeze-thaw cycle” value ([2]; initial concentration 0.05 µM) was 91.7 ± 0.7%. The “% of initial concentration, 1st freeze-thaw cycle” value ([2]; initial concentration 1.00 µM) was 93.9 ± 5.7%, the “% of initial concentration, 2nd freeze-thaw cycle” value ([2]; initial concentration 1.00 µM) was 91.4 ± 7.0% and the “stability in untreated plasma at laboratory temperature” value [3] was “stable”. The V4 ([4]; distribution volume for ICRF-193met) was 0.31 L/kg, the CLICRF-193met ([4]; total clearance of ICRF-193met) was 2.83 mL/min/kg and the “percentage of initial concentration in autosampler” value (shortened to “percentage of initial concentration”) ([5]; extracted DMEM, 100 µM, 0 h) was 101.5%. The “percentage of initial concentration” value ([5]; extracted DMEM, 100 µM, 8 h) was 102.1%, the “percentage of initial concentration” value ([5]; extracted DMEM, 100 µM, 10 h) was 102.7% and the “percentage of initial concentration” value ([5]; extracted NVCMs, 100 pmol/106 cells, 0 h) was 100.0%. The “percentage of initial concentration” value ([5]; extracted NVCMs, 100 pmol/106 cells, 8 h) was 97.7%, the “percentage of initial concentration” value ([5]; extracted NVCMs, 100 pmol/106 cells, 10 h) was 95.0% and the “percentage of initial concentration” value ([5]; extracted buffer, 100 µM, 0 h) was 102.3%. For the same compound, the “percentage of initial concentration” value ([5]; extracted buffer, 100 µM, 8 h) was 102.0%, the “percentage of initial concentration” value ([5]; extracted plasma, 100 µM, 0 h) was 100.4% and the “percentage of initial concentration” value ([5]; extracted plasma, 100 µM, 8 h) was 96.5%. For the same compound, the “percentage of initial concentration” value ([5]; extracted plasma, 100 µM, 10 h) was 99.1%, the “solubility (in words)” value [6] was “poor solubility” and the half-life ([7]; male, New Zealand White, rabbit, plasma, iv, 5 mg/kg) was 1.4 h. For the same compound, the Cmax ([7]; male, New Zealand White, rabbit, plasma, iv, 5 mg/kg, rabbits n = 6, GK-667 5 mg/kg i.v., NCA) was 800 nM, the AUC [7, 12] was 2.7 µM·h and the AUC(0-t) [7, 12] was 2.6 µM·h. For the same compound, the MRT [7, 12] was 2.6 h, the k el ([7]; male, New Zealand White, rabbit, plasma, iv, rabbits n = 6, GK-667 5 mg/kg i.v., NCA, read-out: λz (converted)) was 0.000144 s⁻¹ and the Tmax ([7]; male, New Zealand White, rabbit, plasma, iv, rabbits, GK-667 5 mg/kg i.v., read-out: median tmax) was 2 h. For the same compound, the AUMClast [7, 13] was 6.5 h^2∙µM, the AUMCtot [7, 13] was 7.1 h^2∙µM and the Cmax [7, 13] was 830 nM. For the same compound, the Tmax [7, 13] was 2 h.
For `C[C@@H](CN1CC(=O)NC(=O)C1)N1CC(=O)NC(=O)C1` [DEX, dexrazoxane], the clearance [8] is listed as 5 mL/min/kg, the elimination half-life [8] is listed as 2.0 h and the “concentrations with significant protective effects against DAU toxicity” value [9] is listed as at least 10 µM.
In the case of ICRF-193 [reference compound], the “lowest concentration with significant protection against DAU-induced toxicity” value [10] is given as 0.3 µM and the “potency in the TOP2B inhibitory assay” value [11] is given as “markedly higher potency”.
